The text below walks through data of ChEMBL document CHEMBL1909046, “DrugMatrix in vitro pharmacology data”.

Assay [1] addresses T1, Alpha-2A adrenergic receptor (Homo sapiens, UniProt P08913).
T1 sequence (P08913 whole entry): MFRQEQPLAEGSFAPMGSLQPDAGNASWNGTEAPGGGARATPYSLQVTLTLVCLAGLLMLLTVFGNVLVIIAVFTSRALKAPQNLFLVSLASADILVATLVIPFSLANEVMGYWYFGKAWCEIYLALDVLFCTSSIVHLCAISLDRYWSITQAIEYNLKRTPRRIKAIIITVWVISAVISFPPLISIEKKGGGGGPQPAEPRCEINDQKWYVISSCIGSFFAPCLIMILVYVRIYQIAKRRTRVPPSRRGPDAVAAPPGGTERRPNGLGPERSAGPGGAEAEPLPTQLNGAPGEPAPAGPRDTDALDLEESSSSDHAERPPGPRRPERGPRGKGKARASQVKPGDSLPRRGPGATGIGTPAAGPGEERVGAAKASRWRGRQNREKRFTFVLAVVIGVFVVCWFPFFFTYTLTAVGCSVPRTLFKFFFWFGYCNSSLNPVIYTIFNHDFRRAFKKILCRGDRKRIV
Type of assay: cell membranes, Sf9, Membrane. The settings on record: sf9.

Assay [2] deals with Beta-3 adrenergic receptor (Homo sapiens, UniProt P13945). Nature of the assay: DRUGMATRIX: Adrenergic beta3 radioligand binding (ligand: [125I] Cyanopindolol). Type of assay: cell membranes, HEK293, Membrane. To be noted: hek293; Not Active = under 50% inhibition at 10 µM.
Assay [3] addresses T2, Type-2 angiotensin II receptor (Homo sapiens, UniProt P50052).
T2 sequence (P50052 whole entry): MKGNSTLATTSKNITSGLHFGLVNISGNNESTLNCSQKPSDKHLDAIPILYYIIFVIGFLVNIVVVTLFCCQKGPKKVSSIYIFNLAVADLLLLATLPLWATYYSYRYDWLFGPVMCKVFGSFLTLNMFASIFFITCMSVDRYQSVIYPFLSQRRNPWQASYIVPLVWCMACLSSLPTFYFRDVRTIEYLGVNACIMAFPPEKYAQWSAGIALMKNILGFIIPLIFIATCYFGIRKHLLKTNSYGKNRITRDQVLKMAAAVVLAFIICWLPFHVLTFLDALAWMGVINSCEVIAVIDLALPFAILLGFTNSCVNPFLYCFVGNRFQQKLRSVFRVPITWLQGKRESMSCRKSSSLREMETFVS
Type of assay: cell-based. The settings on record: cho-k1.

A short description of assay [4]: DRUGMATRIX: GABAA, Flunitrazepam, Central radioligand binding (ligand: [3H] Flunitrazepam). The class given is cell membranes, Rattus norvegicus, Wistar, Brain, Membrane. To be noted: Not Active = under 50% inhibition at 10 µM.
The nature of assay [5]: DRUGMATRIX: Phosphodiesterase PDE3 enzyme inhibition (substrate: [3H]cAMP + cAMP). Type of assay: tissue-based, Homo sapiens. The settings on record: platelet, Not Active = under 50% inhibition at 10 µM.
Assay [6] addresses T3, Receptor-type tyrosine-protein phosphatase C (Homo sapiens, UniProt P08575).
T3 sequence (P08575 whole entry): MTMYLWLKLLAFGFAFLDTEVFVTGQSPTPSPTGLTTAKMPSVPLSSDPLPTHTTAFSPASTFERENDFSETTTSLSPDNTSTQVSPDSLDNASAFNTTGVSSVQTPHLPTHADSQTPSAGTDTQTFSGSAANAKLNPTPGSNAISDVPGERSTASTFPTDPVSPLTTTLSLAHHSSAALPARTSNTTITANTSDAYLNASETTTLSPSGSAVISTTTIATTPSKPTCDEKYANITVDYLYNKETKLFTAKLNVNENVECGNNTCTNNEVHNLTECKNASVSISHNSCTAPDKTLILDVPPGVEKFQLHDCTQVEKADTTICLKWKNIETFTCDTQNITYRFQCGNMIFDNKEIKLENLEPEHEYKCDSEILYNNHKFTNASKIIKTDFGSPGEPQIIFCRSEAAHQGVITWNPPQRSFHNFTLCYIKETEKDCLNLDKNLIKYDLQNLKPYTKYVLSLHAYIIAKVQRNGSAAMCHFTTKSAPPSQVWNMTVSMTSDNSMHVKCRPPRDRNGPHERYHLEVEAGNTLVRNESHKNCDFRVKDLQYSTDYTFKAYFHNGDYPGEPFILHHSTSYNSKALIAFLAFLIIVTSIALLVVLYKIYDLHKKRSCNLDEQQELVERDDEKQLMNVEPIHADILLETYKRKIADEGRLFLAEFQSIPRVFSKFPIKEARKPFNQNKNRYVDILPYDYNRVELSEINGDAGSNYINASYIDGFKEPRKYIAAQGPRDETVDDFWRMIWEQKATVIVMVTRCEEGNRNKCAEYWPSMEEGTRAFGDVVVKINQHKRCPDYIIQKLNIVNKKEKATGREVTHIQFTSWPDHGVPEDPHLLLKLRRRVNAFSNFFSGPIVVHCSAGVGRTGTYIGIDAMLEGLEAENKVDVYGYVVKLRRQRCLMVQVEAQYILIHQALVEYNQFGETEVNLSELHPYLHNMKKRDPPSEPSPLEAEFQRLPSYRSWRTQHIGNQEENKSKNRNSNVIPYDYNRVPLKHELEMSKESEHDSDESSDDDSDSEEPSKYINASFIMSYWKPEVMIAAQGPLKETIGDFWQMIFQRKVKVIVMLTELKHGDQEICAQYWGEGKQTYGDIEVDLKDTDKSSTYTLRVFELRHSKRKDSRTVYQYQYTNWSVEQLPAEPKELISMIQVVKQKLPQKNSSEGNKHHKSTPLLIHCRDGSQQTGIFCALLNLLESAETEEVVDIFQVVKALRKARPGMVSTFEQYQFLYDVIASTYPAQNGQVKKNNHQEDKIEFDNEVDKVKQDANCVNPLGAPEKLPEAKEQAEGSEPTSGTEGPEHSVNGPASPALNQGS
Further details: species or system Escherichia coli.

Chain of Beta-3 adrenergic receptor (P13945 whole entry): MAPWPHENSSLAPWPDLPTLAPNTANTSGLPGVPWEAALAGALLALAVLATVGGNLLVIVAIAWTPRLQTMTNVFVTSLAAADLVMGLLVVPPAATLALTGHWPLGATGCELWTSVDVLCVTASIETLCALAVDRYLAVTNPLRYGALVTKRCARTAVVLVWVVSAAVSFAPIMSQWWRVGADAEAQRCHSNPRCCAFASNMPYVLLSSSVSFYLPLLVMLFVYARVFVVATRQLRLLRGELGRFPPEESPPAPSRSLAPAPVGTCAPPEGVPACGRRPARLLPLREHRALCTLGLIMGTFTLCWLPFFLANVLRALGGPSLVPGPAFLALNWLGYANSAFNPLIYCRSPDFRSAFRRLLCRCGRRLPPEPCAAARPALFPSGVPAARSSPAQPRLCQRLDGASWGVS

For orientation: IC50 means the concentration needed to halve the response being measured. Consider `CC[C@H]1OC(=O)[C@H](C)[C@@H](O[C@H]2C[C@@](C)(OC)[C@@H](O)[C@H](C)O2)[C@H](C)[C@@H](O[C@@H]2O[C@H](C)C[C@H](N(C)C)[C@H]2O)[C@](C)(O)C[C@@H](C)CN(C)[C@H](C)[C@@H](O)[C@]1(C)O` [AZITHROMYCIN], for which the IC50 result in assay [1], in assay [2], in assay [3], in assay [4], in assay [5] and in assay [6] was “Not Active” each time. Further, the Ki result in assay [4] and in assay [5] was “Not Active” in each case.

Consider `CC(C)(C)c1ccc(S(=O)(=O)/C=C/C#N)cc1` [BAY-11-7085], for which the IC50 result in assay [1], in assay [2], in assay [3], in assay [4], in assay [5] and in assay [6] was “Not Active” each time. Further, the Ki result in assay [4] and in assay [5] was “Not Active” in each case.

Take `CCc1oc2ccccc2c1C(=O)c1cc(Br)c(O)c(Br)c1` [BENZBROMARONE]: the IC50 result in assay [1], in assay [2], in assay [3], in assay [4], in assay [5] and in assay [6] was “Not Active” each time. Also, the Ki entry in assay [4] and in assay [5] was “Not Active” throughout.

On to `O=c1cc(-c2ccccc2)oc2ccc3ccccc3c12` [BETA-NAPHTHOFLAVONE], for which the IC50 result in assay [1], in assay [2], in assay [3], in assay [4], in assay [5] and in assay [6] was “Not Active” each time. The Ki entry in assay [4] and in assay [5] was “Not Active” each time.

As to `CS(=O)(=O)OCCCCOS(C)(=O)=O` [BUSULFAN], the IC50 entry in assay [1], in assay [2], in assay [3], in assay [4], in assay [5] and in assay [6] was “Not Active” in each case. Besides, the Ki result in assay [4] and in assay [5] was “Not Active” in each case.

On to `O=C(/C=C/c1ccc(O)c(O)c1)OCCc1ccccc1` [CAFFEIC ACID PHENETHYL ESTER], for which the IC50 entry in assay [1], in assay [2], in assay [3], in assay [4], in assay [5] and in assay [6] was “Not Active” each time. The Ki result in assay [4] and in assay [5] was “Not Active” each time.

As to `COc1cc(CNC(=O)CCCC/C=C/C(C)C)ccc1O` [CAPSAICIN], the IC50 result in assay [1], in assay [2], in assay [3], in assay [4], in assay [5] and in assay [6] was “Not Active” each time. Also, the Ki entry in assay [4] and in assay [5] was “Not Active” throughout.

Turning to `NC(=O)N1c2ccccc2C=Cc2ccccc21` [CARBAMAZEPINE], the IC50 result in assay [1], in assay [2], in assay [3], in assay [4], in assay [5] and in assay [6] was “Not Active” in each case. In addition, the Ki entry in assay [4] and in assay [5] was “Not Active” each time.

As for `CCOC(=O)n1ccn(C)c1=S` [CARBIMAZOLE], the IC50 result in assay [1], in assay [2], in assay [3], in assay [4], in assay [5] and in assay [6] was “Not Active” throughout. The Ki result in assay [4] and in assay [5] was “Not Active” in each case.

Consider `Oc1ccccc1O` [CATECHOL], for which the IC50 entry in assay [1], in assay [2], in assay [3], in assay [4], in assay [5] and in assay [6] was “Not Active” in each case. Besides, the Ki result in assay [4] and in assay [5] was “Not Active” throughout.

For the compound `CO[C@@]1(NC(=O)CSCC#N)C(=O)N2C(C(=O)O)=C(CSc3nnnn3C)CS[C@@H]21` [CEFMETAZOLE], the IC50 result in assay [1], in assay [2], in assay [3], in assay [4], in assay [5] and in assay [6] was “Not Active” throughout. The Ki result in assay [4] and in assay [5] was “Not Active” each time.

On to `CN(C(=O)CCCOc1ccc2[nH]c(=O)ccc2c1)C1CCCCC1` [CILOSTAMIDE], for which the IC50 result was “Not Active” in assay [1]; “Not Active” in assay [2]; “Not Active” in assay [3]; “Not Active” in assay [4]; 55 nM in assay [5] (read-out: IC50); “Not Active” in assay [6]. For the same compound, the Ki entry in assay [4] is on record as “Not Active”.

As for `CC(C)(Oc1ccc(C2CC2(Cl)Cl)cc1)C(=O)O` (centres undefined) [CIPROFIBRATE], the IC50 result in assay [1], in assay [2], in assay [3], in assay [4], in assay [5] and in assay [6] was “Not Active” each time. Moreover, the Ki entry in assay [4] and in assay [5] was “Not Active” throughout.

In the case of `Nc1nc(Cl)nc2c1ncn2[C@H]1C[C@H](O)[C@@H](CO)O1` [CLADRIBINE], the IC50 result in assay [1], in assay [2], in assay [3], in assay [4], in assay [5] and in assay [6] was “Not Active” throughout. Moreover, the Ki result in assay [4] and in assay [5] was “Not Active” in each case.

With `CC[C@H]1OC(=O)[C@H](C)[C@@H](O[C@H]2C[C@@](C)(OC)[C@@H](O)[C@H](C)O2)[C@H](C)[C@@H](O[C@@H]2O[C@H](C)C[C@H](N(C)C)[C@H]2O)[C@](C)(OC)C[C@@H](C)C(=O)[C@H](C)[C@@H](O)[C@]1(C)O` [CLARITHROMYCIN], the IC50 entry in assay [1], in assay [2], in assay [3], in assay [4], in assay [5] and in assay [6] was “Not Active” in each case. The Ki entry in assay [4] and in assay [5] was “Not Active” each time.
